Article PMC8496750, “Identification of the organic anion transporting polypeptides responsible for the hepatic uptake of the major metabolite of epyrifenacil, S‐3100‐CA, in mice” (Pharmacology Research & Perspectives, 2021)
Where two headings read alike, the source gives them in different places.

Assay: Metabolite analysis in plasma, liver, and kidney (TLC)
Assay type: in vivo, Crl:CD1(ICR) mice
Conditions: Crl:CD1(ICR), mouse
Source text: Precoated silica gel 60 F254 chromatoplate (20 × 20 cm, 0.25‐ or 0.5‐mm layer thickness, Merck KGaA) was used for two‐dimensional thin layer chromatography (2D‐TLC) analysis. The solvent systems were ethyl formate/formic acid (95/5, v/v) for the first dimension, and ethyl acetate/acetic acid (95/5, v/v) for the second dimension. The radioactivity on the TLC plates was detected by autoradiography using an imaging plate processed with a fluoro‐image analyzer (FLA‐9500, GE Healthcare). The identity of the metabolites was confirmed by co‐chromatography in comparison with authentic metabolite standards.
Three mice per sex at 8 weeks old were given a single oral dose of [^14C]epyrifenacil at 1 mg/kg with or without co‐administration of OATP inhibitors. […] At 2 h after administration of [^14C]epyifenacil, the animals were euthanized by whole blood collection from the abdominal aorta under anesthesia with isoflurane. The sampling time point was selected as the time around T max based on the result of the blood ^14C‐concentration study. Then, the liver and kidney were dissected out, and the amount of ^14C was measured. Aliquots of heparinized blood samples were separated into blood cells and plasma by centrifugation at 2000g for 10 min at 4°C. The total weight of the liver and kidney was determined for each animal. Two aliquots of plasma and tissue samples (approximately 0.05–0.1 g) were weighed in a glass vial, and the radioactivity was measured.
Approximately 0.3 g of liver, kidney, and plasma samples were pooled, respectively, for each dose and gender to obtain samples for analysis. Pooled liver, kidney, and plasma (ca. 1 g each) samples were homogenized with an approximately 3‐fold volume (v/w) of methanol using the mixer mill MM400 (5 min, 25 cycles/second, Retsch GmbH) and centrifuged (10 000g, 5 min, 4°C) to separate the supernatants from the residues. The extraction was repeated one additional time. The supernatants obtained were pooled and labeled liver, kidney, and plasma extracts. These samples were concentrated and then subjected to TLC analysis. For calculation of extraction efficacy, the post‐extraction solids (PESs) from the tissues and plasma extracts were sampled in low potassium glass vials. PESs were solubilized with 3 M potassium hydroxide solution (approximately 1 ml), then bleached with 30% hydrogen peroxide solution, and finally mixed with 10 ml of Hionic‐Fluor to measure the radioactivity.

[1] = kidney, oral, with rifampicin (OATP inhibitor) 200 mg/kg p.o., Male, 2 h after [^14C]Epyrifenacil 1 mg/kg p.o. + Rifampicin 200 mg/kg p.o., read-out: Metabolite concentration, Kidney
[2] = kidney, oral, Female, 2 h after [^14C]Epyrifenacil 1 mg/kg p.o., read-out: Metabolite concentration, Kidney
[3] = kidney, oral, Male, 2 h after [^14C]Epyrifenacil 1 mg/kg p.o., read-out: Metabolite concentration, Kidney
[4] = liver, oral, Female, 2 h after [^14C]Epyrifenacil 1 mg/kg p.o., read-out: Metabolite concentration, Liver
[5] = liver, oral, Male, 2 h after [^14C]Epyrifenacil 1 mg/kg p.o., read-out: Metabolite concentration, Liver
[6] = plasma, oral, Female, 2 h after [^14C]Epyrifenacil 1 mg/kg p.o., read-out: Metabolite concentration, Plasma
[7] = plasma, oral, Male, 2 h after [^14C]Epyrifenacil 1 mg/kg p.o., pooled samples, read-out: Metabolite concentration, Plasma

CNC(=O)Nc1cc(Oc2cccnc2OCC(=O)O)c(Cl)cc1F [M2]
concentration at 2 h [1]: 1 ng/g
concentration at 2 h [2]: 2 ng/g
concentration at 2 h [3]: 4 ng/g
concentration at 2 h [4]: 11 ng/g
concentration at 2 h [5]: 24 ng/g
concentration at 2 h (plasma, oral, with rifampicin (OATP inhibitor) 200 mg/kg p.o., Female, 2 h after [^14C]Epyrifenacil 1 mg/kg p.o. + Rifampicin 200 mg/kg p.o., read-out: Metabolite concentration, Plasma): 16 ng/g
concentration at 2 h (plasma, oral, with rifampicin (OATP inhibitor) 200 mg/kg p.o., Male, 2 h after [^14C]Epyrifenacil 1 mg/kg p.o. + Rifampicin 200 mg/kg p.o., read-out: Metabolite concentration, Plasma): 35 ng/g
concentration at 2 h [6]: 55 ng/g
concentration at 2 h [7]: 20 ng/g

CN1C(=O)N(c2cc(Oc3cccnc3OCC(=O)O)c(Cl)cc2F)C(=O)CC1(O)C(F)(F)F (centres unmarked) [M4]
concentration at 2 h (female, in vivo, 1 mg/kg, Female, 2 h after [^14C]Epyrifenacil 1 mg/kg p.o., read-out: Metabolite concentration, Kidney): 23 ng/g
concentration at 2 h (female, in vivo, 1 mg/kg, Female, 2 h after [^14C]Epyrifenacil 1 mg/kg p.o., read-out: Metabolite concentration, Liver): 858 ng/g
concentration at 2 h (female, in vivo, Female, 2 h after [^14C]Epyrifenacil 1 mg/kg p.o. + Digoxin 100 mg/kg i.p., read-out: Metabolite concentration, Kidney): 30 ng/g
concentration at 2 h (female, in vivo, Female, 2 h after [^14C]Epyrifenacil 1 mg/kg p.o. + Digoxin 100 mg/kg i.p., read-out: Metabolite concentration, Liver): 553 ng/g
concentration at 2 h (female, in vivo, Female, 2 h after [^14C]Epyrifenacil 1 mg/kg p.o. + Digoxin 200 mg/kg p.o., read-out: Metabolite concentration, Kidney): 7 ng/g
concentration at 2 h (female, in vivo, Female, 2 h after [^14C]Epyrifenacil 1 mg/kg p.o. + Digoxin 200 mg/kg p.o., read-out: Metabolite concentration, Liver): 291 ng/g
concentration at 2 h (female, in vivo, Female, 2 h after [^14C]Epyrifenacil 1 mg/kg p.o. + Rifampicin 200 mg/kg p.o., read-out: Metabolite concentration, Kidney): 15 ng/g
concentration at 2 h (female, in vivo, Female, 2 h after [^14C]Epyrifenacil 1 mg/kg p.o. + Rifampicin 200 mg/kg p.o., read-out: Metabolite concentration, Liver): 129 ng/g
concentration at 2 h (female, in vivo, Female, 2 h after [^14C]Epyrifenacil 1 mg/kg p.o. + Rifampicin 200 mg/kg p.o., read-out: Metabolite concentration, Plasma): 22 ng/g
concentration at 2 h (male, in vivo, 1 mg/kg, Male, 2 h after [^14C]Epyrifenacil 1 mg/kg p.o., pooled samples, read-out: Metabolite concentration, Plasma): 3 ng/g
concentration at 2 h (male, in vivo, 1 mg/kg, Male, 2 h after [^14C]Epyrifenacil 1 mg/kg p.o., read-out: Metabolite concentration, Kidney): 9 ng/g
concentration at 2 h (male, in vivo, 1 mg/kg, Male, 2 h after [^14C]Epyrifenacil 1 mg/kg p.o., read-out: Metabolite concentration, Liver): 1030 ng/g
concentration at 2 h (male, in vivo, Male, 2 h after [^14C]Epyrifenacil 1 mg/kg p.o. + Digoxin 100 mg/kg i.p., read-out: Metabolite concentration, Kidney): 14 ng/g
concentration at 2 h (male, in vivo, Male, 2 h after [^14C]Epyrifenacil 1 mg/kg p.o. + Digoxin 100 mg/kg i.p., read-out: Metabolite concentration, Liver): 651 ng/g
concentration at 2 h (male, in vivo, Male, 2 h after [^14C]Epyrifenacil 1 mg/kg p.o. + Digoxin 200 mg/kg p.o., read-out: Metabolite concentration, Kidney): 5 ng/g
concentration at 2 h (male, in vivo, Male, 2 h after [^14C]Epyrifenacil 1 mg/kg p.o. + Digoxin 200 mg/kg p.o., read-out: Metabolite concentration, Liver): 157 ng/g
concentration at 2 h (male, in vivo, Male, 2 h after [^14C]Epyrifenacil 1 mg/kg p.o. + Rifampicin 200 mg/kg p.o., read-out: Metabolite concentration, Kidney): 22 ng/g
concentration at 2 h (male, in vivo, Male, 2 h after [^14C]Epyrifenacil 1 mg/kg p.o. + Rifampicin 200 mg/kg p.o., read-out: Metabolite concentration, Liver): 172 ng/g
concentration at 2 h (male, in vivo, Male, 2 h after [^14C]Epyrifenacil 1 mg/kg p.o. + Rifampicin 200 mg/kg p.o., read-out: Metabolite concentration, Plasma): 4 ng/g

Cn1c(C(F)(F)F)cc(=O)n(-c2cc(Oc3ccc[nH]c3=O)c(Cl)cc2F)c1=O [M6]
concentration at 2 h [1]: 1 ng/g
concentration at 2 h [2]: 4 ng/g
concentration at 2 h [3]: 8 ng/g
concentration at 2 h [4]: 6 ng/g
concentration at 2 h [5]: 12 ng/g
concentration at 2 h [6]: 15 ng/g
concentration at 2 h [7]: 3 ng/g
